Measured values: ChEMBL document CHEMBL1201862, “PubChem BioAssay data set” (2004)
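Tested at 5 concentrations; 48 h exposure; 96-well plates; endpoints linearly interpolated, else capped at highest concentration. GI50 is the concentration that inhibits growth by half.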 Activity calls are given as the source filed them. No stated cut-off is given here; in the data, active = GI50 up to about 1.1 µM and inactive = higher.

What was measured:
Assay in all cases: growth of human tumour cells (NCI), 48 h
[1] = system: NCI-H23
[2] = system: NCI-H522
[3] = system: RPMI-8226
[4] = system: UO-31
[5] = system: COLO 205
[6] = system: MDA-MB-231
[7] = system: CAKI-1
[8] = system: RXF 393
[9] = system: TK-10
[10] = system: SK-MEL-28
[11] = system: HOP-62
[12] = system: A549
[13] = system: OVCAR-8
[14] = system: SF-539
[15] = system: HL-60
[16] = system: SF-268
[17] = system: HOP-92
[18] = system: DU-145
[19] = system: Hs-578T
[20] = system: OVCAR-3
[21] = system: Malme-3M
[22] = system: MCF7
[23] = system: SK-OV-3
[24] = system: EKVX
[25] = system: SF-295
[26] = system: T47D
[27] = system: HT-29
[28] = system: MOLT-4
[29] = system: BT-549
[30] = system: SN12C
[31] = system: ACHN
[32] = system: HCT-116
[33] = system: LOX IMVI
[34] = system: U-251
[35] = system: OVCAR-4
[36] = system: IGROV-1
[37] = system: SK-MEL-2
[38] = system: HCT-15
[39] = system: NCI-H226
[40] = system: SW-620
[41] = system: SK-MEL-5
[42] = system: KM12
[43] = system: UACC-62
[44] = system: NCI-H460
[45] = system: SNB-19
[46] = system: K562
[47] = system: NCI/ADR-RES
[48] = system: PC-3
[49] = system: UACC-257
[50] = system: MDA-N
[51] = system: A498
[52] = system: CCRF-CEM
[53] = system: M14
[54] = system: OVCAR-5
[55] = system: MDA-MB-435
[56] = system: HCC 2998
[57] = system: 786-0
[58] = system: SNB-75

Measured: GI50

Cc1ccc(NC(=O)C(Cc2c[nH]c3ccccc23)NC(=O)Oc2ccccc2)cc1C (stereo not drawn)
active: [9] 0.728 µM
62.4 µM: [38]
inactive: [1] > 100 µM | [2] > 100 µM | [3] 26.7 µM | [4] 77.6 µM | [5] 50.4 µM | [6] > 100 µM | [7] 53 µM | [8] 25.2 µM | [10] > 100 µM | [11] > 100 µM | [12] 66.4 µM | [13] 57.5 µM | [14] > 100 µM | [15] 40.6 µM | [16] 50.7 µM | [17] 27.7 µM | [18] > 100 µM | [19] 38.3 µM | [20] 34.8 µM | [21] 14.3 µM | [22] 41.2 µM | [23] > 100 µM | [24] 59.7 µM | [25] > 100 µM | [26] 39.5 µM | [27] 41.3 µM | [28] 57.5 µM | [29] 30.6 µM | [30] 64.1 µM | [31] 84.3 µM | [32] 61.5 µM | [33] 47.9 µM | [34] 80.2 µM | [35] 44.3 µM | [36] 30.5 µM | [37] 85.9 µM | [39] 73.1 µM | [40] > 100 µM | [41] 44.1 µM | [42] 23.8 µM | [43] 54.7 µM | [44] 39.4 µM | [45] > 100 µM | [46] 59 µM | [47] 83.8 µM | [48] 37.3 µM | [49] > 100 µM | [50] 55.8 µM | [51] 27.4 µM | [52] 35.1 µM | [53] 74.8 µM | [54] > 100 µM | [55] 65.2 µM

OCCNc1ncnc2c1ncn2C1OC(CO)C(O)C1O (stereo not drawn)
active: [28] 0.224 µM
inactive: [1] > 100 µM | [2] 47.3 µM | [3] 85.7 µM | [4] 57.4 µM | [5] > 100 µM | [6] 25.5 µM | [7] > 100 µM | [8] > 100 µM | [9] 71.3 µM | [10] > 100 µM | [56] 64.9 µM | [11] > 100 µM | [12] > 100 µM | [13] 35 µM | [14] > 100 µM | [15] 33.1 µM | [16] 91.6 µM | [17] 51.4 µM | [18] 19.3 µM | [19] 48 µM | [20] 52.1 µM | [21] > 100 µM | [22] 39.4 µM | [23] > 100 µM | [24] > 100 µM | [25] > 100 µM | [26] > 100 µM | [27] > 100 µM | [29] > 100 µM | [30] 80.5 µM | [31] 71.3 µM | [32] 70.5 µM | [57] > 100 µM | [33] 40.4 µM | [34] > 100 µM | [35] > 100 µM | [36] > 100 µM | [37] > 100 µM | [58] > 100 µM | [40] > 100 µM | [41] > 100 µM | [42] > 100 µM | [43] > 100 µM | [44] 87.9 µM | [45] > 100 µM | [47] 50.6 µM | [48] 47.4 µM | [49] > 100 µM | [50] > 100 µM | [51] 57.7 µM | [52] 30.3 µM | [53] > 100 µM | [54] > 100 µM | [55] > 100 µM
42.5 µM: [38]

CC1=C(CO)C(=O)O[C@@H]([C@@H](C)[C@H]2CC[C@H]3[C@@H]4C[C@@H](O)[C@@]5(O)CC=CC(=O)[C@]5(C)[C@H]4CC[C@]23C)C1 [JABOROSALACTONE D]
16.4 µM: [38]
inactive: [1] 21.2 µM | [2] 14.2 µM | [3] 24.9 µM | [5] 43.1 µM | [6] 31.3 µM | [7] > 100 µM | [8] 22.3 µM | [9] > 100 µM | [10] 42.1 µM | [56] 30.3 µM | [11] 64 µM | [12] 38 µM | [13] 31.3 µM | [14] 31 µM | [15] 21.1 µM | [16] 92.3 µM | [17] 42 µM | [18] 35.2 µM | [19] 35.7 µM | [20] 36 µM | [21] 15.7 µM | [22] 39.7 µM | [23] 63.8 µM | [24] 49.2 µM | [25] 61.5 µM | [26] 58.1 µM | [27] 33.1 µM | [28] 26.6 µM | [29] 27.7 µM | [30] 42.4 µM | [31] 26.8 µM | [32] 20.5 µM | [57] 20.8 µM | [33] 23.5 µM | [34] 37 µM | [35] 32.2 µM | [36] 15.1 µM | [37] 43.7 µM | [58] 25.9 µM | [39] 35.8 µM | [40] 21.7 µM | [41] 32.6 µM | [42] 19.8 µM | [43] 29.6 µM | [44] 19.1 µM | [45] 46.5 µM | [46] 26.8 µM | [47] 21.1 µM | [48] 47 µM | [49] > 100 µM | [50] 45 µM | [51] 18.7 µM | [52] 33.2 µM | [53] 49.2 µM | [54] > 100 µM | [55] 44.3 µM
